Columns and labels:
[1] = Pharmacokinetic analysis after single intraperitoneal injection; format: in vivo, NZB/W F1 mice; details: for AUCinf / AUC0-24hr / Cmax / T1/2 / Tmax: plasma, mean ± SD; for AUCinf: extrapolated
Description: Four 23-week old female NZB/W F1 mice were purchased from Jackson Laboratory and housed in CKD Research Institute animal facility. This study was reviewed and approved by the Institutional Animal Care and Use Committee of CKD Research Institute. All procedures were in compliance with Animal Welfare Act Regulations and the Guide for the Care and Use of Laboratory Animals. The indicated amount of CKD-506 was injected intraperitoneally into NZB/W F1 mice. Blood samples were collected from retro-orbital plexus using a heparinized capillary tube under diethyl-ether anesthesia at pre-dose (0) and 0.25, 1, 2, 4, 8 and 24 hours post-dose at day of PK sampling. After centrifugation at 13,000 rpm for 4 min and 4 °C, ten microliters of the separated plasma was dispensed into microtube and 120 μl of organic solvent (90% acetonitrile (in MeOH, v/v)) was immediately added for deproteinization/extraction. The pre-treated samples had been kept at −70 °C until analysis. Ten microliters of internal standard (verapamil 500 ng/ml in acetonitrile) was added into the pre-treated plasma samples and vortexed for 1 min and then, centrifuged at 13,000 rpm for 4 min and 4 °C. Eighty microliters of the supernatant of the sample were transferred into a 96 well-autosampler plate and 40 μl of HPLC water was then added in each well. The concentration of CKD-506 in samples were analyzed using API 4000 QTRAP (AB SCIEX) (Framingham, MA).

[2] = system: NZB/W F1 female mice; assay: Murine SLE model: serum cytokine levels (Milliplex); format: in vivo, mouse; details: for Serum GM-CSF / Serum IFN-γ / Serum IL-1α / Serum IL-1β / Serum IL-2 / Serum IL-4 / Serum IL-6 / Serum IL-10 / Serum IL-12(70) / Serum IL-15 / Serum IL-17 / Serum IL-22 / Serum IL-23 / Serum TGF-β1 / Serum TNF-α: at autopsy, mean ± SD
Description: Serum samples were assayed using Milliplex® MAP Kits (Millipore) for granulocyte macrophage-colony stimulating factor (GM-CSF), interferon-γ (IFN-γ), interleukin-1α (IL-1α), IL-1β, IL-10, IL-12(p70), IL-15, IL-17a, IL-2, IL-4, IL-6, tumor necrosis factor α (TNF-α), transforming growth factor beta 1 (TGF-β1), IL-22, IL-23, IFN-inducible protein 10 (IP-10 (CXCL10)) and chemokine (C-C motif) ligand 2 (CCL2 (MCP-1)).

[3] = system: THP1-Blue ISG human monocyte cell line; assay: cGAMP induced IFN promoter activity reporter assay (IRF-inducible SEAP); format: cell-based; details: 3 μM; 10 μM cGAMP; 24hr; significant
Text: Supplementary Figure 2. A representative gating scheme of the T cell subset and CD138+ […]
To analyze T helper subsets, splenocytes were stained with antibodies to CD4 and CD25 (FITC-conjugated anti-mouse CD4 and APC-conjugated anti-mouse CD25, BD Biosciences).
Cells were fixed and permeabilized prior to staining with Foxp3 (Tube 007), ROR-γt (Tube 008), T-bet (Tube 009), and GATA-3 (Tube 010) antibodies (PE-, BD Biosciences).
The splenocytes were stained with PerCP-Cy5.5-conjugated anti-mouse CD3e (PerCP-cy5.5-CD3e, eBioscience, San Diego, CA, USA), fluorescein isothiocyanate (FITC)-conjugated anti-mouse CD4 (FITC-CD4, BD Biosciences, San Jose, CA, USA), PE-cyanine7-conjugated anti-mouse CD8a (eBioscience), and APC-conjugated anti-mouse CD25 (Tube 011).
Unstained control (no antibody, Tube 001), FITC control (FITC-conjugated anti-mouse CD4 only, Tube 002), APC control (APC-conjugated anti-mouse CD25 only, Tube 003), PE control (PE-conjugated anti-mouse CD138 (BD Bioscience) only, Tube 004), and PerCP-Cy5.5 CD3 control (PerCP-Cy5.5-conjugated anti-mouse CD3e only, Tube 005) were also used for gating. cGAMP induced IFN promoter activ ity
Supplementary Figure 3. […]
The SEAP activity in the culture supernatant was measured with Flexstation (Molecular Devices, USA) after incubation with Quanti-Blue solution (InvivoGen, USA) for 15 min. […]

[4] = group D: CKD-506 10 mg/kg/day, n = 10
[5] = group E: CKD-506 30 mg/kg/day, n = 14

CKD-506
AUCinf ([1]; 10 mg/kg i.p. single): 818 ± 130 ng·h/mL | AUC0-24hr ([1]; 10 mg/kg i.p. single): 737 ± 104 ng/h/mL | Cmax ([1]; 10 mg/kg i.p. single): 1336 ± 95.6 ng/mL | T1/2 ([1]; 10 mg/kg i.p. single): 14.0 ± 2.60 h | Tmax ([1]; 10 mg/kg i.p. single): 0.25 ± 0.00 h | time for which dose is enough to inhibit in vivo HDAC6 activity ([1]; 30 mg/kg): more than 2 hr | AUCinf ([1]; 30 mg/kg i.p. single): 2129 ± 275 ng·h/mL | AUC0-24hr ([1]; 30 mg/kg i.p. single): 1997 ± 290 ng/h/mL | Cmax ([1]; 30 mg/kg i.p. single): 3749 ± 314 ng/mL | T1/2 ([1]; 30 mg/kg i.p. single): 9.64 ± 4.08 h | Tmax ([1]; 30 mg/kg i.p. single): 0.25 ± 0.00 h | time for which dose is enough to inhibit (90% of) in vivo HDAC6 activity ([1]; 50 mg/kg): more than 4 hr | AUCinf ([1]; 50 mg/kg i.p. single): 4321 ± 408 ng·h/mL | AUC0-24hr ([1]; 50 mg/kg i.p. single): 4028 ± 419 ng/h/mL | Cmax ([1]; 50 mg/kg i.p. single): 7276 ± 585 ng/mL | T1/2 ([1]; 50 mg/kg i.p. single): 10.0 ± 1.33 h | Tmax ([1]; 50 mg/kg i.p. single): 0.25 ± 0.00 h | exposure (Cmax and AUC) versus dose ([1]; 10, 30, 50 mg/kg i.p.): increased in a dose-dependent manner | plasma half-life (T1/2) ([1]; single IP, overall statement): about 10 hrs | serum levels of IP-10 vs vehicle ([2]; group CKD50, 36 weeks of age): significantly lower | Mean serum levels of CCL2 vs vehicle ([2]; group CKD50, 36 weeks of age, difference not statistically significant): lower | Serum GM-CSF [2, 4]: 2.65 ± 8.38 pg/mL | Serum IFN-γ [2, 4]: 1.06 ± 3.34 pg/mL | Serum IL-1α [2, 4]: 371.96 ± 261.58 pg/mL | Serum IL-1β [2, 4]: 1.27 ± 2.04 pg/mL | Serum IL-2 [2, 4]: 1.91 ± 5.61 pg/mL | Serum IL-4 [2, 4]: 1.74 ± 0.60 pg/mL | Serum IL-6 [2, 4]: 7.21 ± 7.41 pg/mL | Serum IL-10 [2, 4]: 25.00 ± 25.33 pg/mL | Serum IL-12(70) [2, 4]: 1.94 ± 3.69 pg/mL | Serum IL-15 [2, 4]: 184.36 ± 280.13 pg/mL | Serum IL-17 [2, 4]: 10.40 ± 12.20 pg/mL | Serum IL-22 [2, 4]: 27.05 ± 31.48 pg/mL | Serum IL-23 [2, 4]: 1.96 ± 6.20 pg/mL | Serum TGF-β1 [2, 4]: 73356.45 ± 22951.98 pg/mL | Serum TNF-α [2, 4]: 7.91 ± 8.45 pg/mL | Serum GM-CSF [2, 5]: 5.32 ± 15.20 pg/mL | Serum IFN-γ [2, 5]: 6.60 ± 15.24 pg/mL | Serum IL-1α [2, 5]: 458.40 ± 339.71 pg/mL | Serum IL-1β [2, 5]: 74.66 ± 264.02 pg/mL | Serum IL-2 [2, 5]: 9.32 ± 17.79 pg/mL | Serum IL-4 [2, 5]: 8.60 ± 25.44 pg/mL | Serum IL-6 [2, 5]: 21.23 ± 50.94 pg/mL | Serum IL-10 [2, 5]: 56.55 ± 146.53 pg/mL | Serum IL-12(70) [2, 5]: 74.50 ± 238.09 pg/mL | Serum IL-15 [2, 5]: 162.41 ± 200.63 pg/mL | Serum IL-17 [2, 5]: 21.14 ± 54.60 pg/mL | Serum IL-22 [2, 5]: 13.00 ± 16.48 pg/mL | Serum IL-23 [2, 5]: 100.56 ± 376.25 pg/mL | Serum TGF-β1 [2, 5]: 58807.36 ± 25015.67 pg/mL | Serum TNF-α [2, 5]: 16.25 ± 50.35 pg/mL | Serum GM-CSF ([2]; group F: 50 mg/kg/day, n = 14): 1.89 ± 7.09 pg/mL | Serum IFN-γ ([2]; group F: 50 mg/kg/day, n = 14): 2.07 ± 5.38 pg/mL | Serum IL-1α ([2]; group F: 50 mg/kg/day, n = 14): 629.16 ± 480.71 pg/mL | Serum IL-1β ([2]; group F: 50 mg/kg/day, n = 14): 3.86 ± 7.83 pg/mL | Serum IL-2 ([2]; group F: 50 mg/kg/day, n = 14): 4.09 ± 9.84 pg/mL | Serum IL-4 ([2]; group F: 50 mg/kg/day, n = 14): 3.70 ± 6.48 pg/mL | Serum IL-6 ([2]; group F: 50 mg/kg/day, n = 14): 5.69 ± 8.94 pg/mL | Serum IL-10 ([2]; group F: 50 mg/kg/day, n = 14): 8.31 ± 14.15 pg/mL | Serum IL-12(70) ([2]; group F: 50 mg/kg/day, n = 14): 15.62 ± 45.25 pg/mL | Serum IL-15 ([2]; group F: 50 mg/kg/day, n = 14): 26.24 ± 28.73 pg/mL | Serum IL-17 ([2]; group F: 50 mg/kg/day, n = 14): 4.82 ± 7.15 pg/mL | Serum IL-22 ([2]; group F: 50 mg/kg/day, n = 14): 6.37 ± 5.56 pg/mL | Serum IL-23 ([2]; group F: 50 mg/kg/day, n = 14): 41.34 ± 154.68 pg/mL | Serum TGF-β1 ([2]; group F: 50 mg/kg/day, n = 14): 73110.92 ± 17325.08 pg/mL | Serum TNF-α ([2]; group F: 50 mg/kg/day, n = 14): 1.24 ± 2.60 pg/mL | cGAMP induced IFN promoter activity [3]: repressed
